The results in this text go back to patent US20110275699A1, “Treatment For Obesity And Diabetes” (University of California, priority 2010, published 2011).

In test [1] the test system is DNA-PK. Nature of the test: DNA-PK phosphorylation in treated 293 cells (western blotting). The class given is cell-based. The following applies: 2 hrs. The method, then: (§1) C57BL/6J male mice (Jackson laboratory) were used at 7 wks of age unless specified. For fasting/feeding experiments, mice were fasted for 40 hrs and then fed a high carbohydrate, fat-free diet for indicated time periods. HepG2 cells were grown in DMEM supplemented with 10% fetal bovine serum and 100 units/ml penicillin/streptomycin. M059J and M059K were from ATCC and grown in the same medium containing 4 mg/ml glutamine. HepG2 cells were maintained in serum free media overnight prior to insulin treatment. For insulin treatment, HepG2 cells were treated with 100 nM insulin or DMSO for 30 min. 293FT cells in DMEM supplemented with 10% fetal bovine serum and 100 units/ml penicillin/streptomycin/neomycin or 293F cells in 293 Freestyle medium were transfected with expression constructs or siRNA (Santa Cruz) using lipofectamine 2000 (Invitrogen) or 293 Fectin (Invitrogen), respectively. 293 cells were treated with either control DMSO or OA at 1 uM and Taut at indicated concentrations for 2 hrs. […]
(§2) Therefore, Applicants tested the S262 phosphorylation status of USF-1 upon treatment with okadaic acid (OA), which is known to prevent dephosphorylation of DNA-PK (Douglas et al., 2001). […] Similarly, PP1 was not detected in nuclear extracts from control HepG2 cells but was increased upon insulin treatment (FIG. 3H, right panel). […]
In general terms: In western blotting, separated proteins are transferred to a membrane and probed.

The subject of test [2] is USF-1. Nature of the test: S262 phosphorylation of USF-1 in 293 cells (IP and western blotting). In kind it is cell-based. The following applies: 2 hrs. The method, then:
as §1, with “hrs. Expression vectors for DNA-PK and mutants, HAT, HDAC9, PP1, Kus and −0.7 p53-Luc were from laboratories of Drs. Meek, Kouzarides, Zelent, Lamond, Shay and Oren respectively. siRNA for knockdown of DNA-PK is commercially available at Santa Cruz Biotechnology Inc.” for “hrs.”
Next S262 phosphorylation of USF-1 by DNA-PK in cultured cells was tested. […] Applicants detected higher S262 phosphorylation of USF-1 immunoprecipitated from cells overexpressing WT DNA-PK (FIG. 3B, left panel, lane 2), but not from cells expressing DNA-PK with T3950D mutation (FIG. 3B, lane 3) or control cells (FIG. 3B, lane 1). Furthermore, Applicants detected even higher S262 phosphorylation of USF-1 from cells expressing DNAPK with T3950A mutation compared to WT DNA-PK-expressing cells (FIG. 3B, middle panel, lane 3). […] WT USF-1, but not USF-1 containing S262A mutation, was detected to have higher phosphorylation upon cotransfection with DNA-PK (FIG. 3B, right panel, lanes 2 and 3). […]

Test [3] concerns USF-1. Nature of the test: USF-1 interaction (IP) and recruitment of proteins to the FAS promoter (ChIP) in 293 cells. In kind it is cell-based. The following applies: Taut at indicated concentrations for 2 hrs. The method, then:
as §1, with “hrs. Expression vectors for DNA-PK and mutants, HAT, HDAC9, PP1, Kus and −0.7 p53-Luc were from laboratories of Drs.” for “hrs.”
Livers from fasted or fed mice were fixed with DSG at 2 mM for 45 min at RT before formaldehyde cross-linking Soluble chromatin was quantified by absorbance at 260 nm, and equivalent amounts of input DNA were immunoprecipitated. […]

Test [4] concerns USF-1. Nature of the test: K237 acetylation of USF-1 in cells (IP and western blotting). The class given is cell-based. The following applies: OA-treated cells vs control cells. The method, then: as §1, with “respectively.” for “respectively. 293 cells were treated with either control DMSO or OA at 1 uM and Taut at indicated concentrations for 2 hrs.”
Since USF-1 is both phosphorylated and acetylated at nearby sites and these posttranslational modifications are critical for USF-1 function in FAS promoter activation, we tested whether an increase in S262 phosphorylation of USF-1 could affect K237 acetylation. […] Conversely, we detected a significant level of K237 acetylation of USF-1 in control cells, which was reduced in OA-treated cells (FIG. 5B, left panel, lane 2). […]

In test [5] the test system is USF-1. The test can be described thus: USF-1 S262 phosphorylation/K237 acetylation in HepG2 cells with or without insulin. In kind it is cell-based. The following applies: HepG2, control siRNA-transfected cells, insulin 100 nM 30 min. The method, then:
as §1, with “hrs. Expression vectors for DNA-PK and mutants, HAT, HDAC9, PP1, Kus and −0.7 p53-Luc were from laboratories of Drs. Meek, Kouzarides, Zelent, Lamond, Shay and Oren respectively. siRNA for knockdown of DNA-PK is commercially available at Santa Cruz Biotechnology Inc.” for “hrs.”

The test system of test [6] is DNA-PK. Nature of the test: DNA-PK phosphorylation in HepG2 cells with or without insulin. The class given is cell-based. The following applies: insulin-treated HepG2 cells vs noninsulin-treated cells. The method, then: as §1, with “hrs. Expression vectors for DNA-PK and mutants, HAT, HDAC9, PP1, Kus and −0.7 p53-Luc were from laboratories of Drs.” for “hrs.”
DNA-PK activity is known to be regulated by phosphorylation/dephosphorylation, independent of its activation by DNA. […] DNA-PK phosphorylation was detected using phosphoserine/threonine antibodies that detect autophosphorylation at the S/TQ motifs of DNA-PK.

The test system of the next test is PP1. Nature of the test: PP1 in nuclear extracts of HepG2 cells. The class given is cell-based. The following applies: insulin treatment vs control. The method, then:
as §1, §2

The subject of test [7] is USF-1. Nature of the test: USF-1 modifications in M059K cells containing WT DNA-PK. The class given is cell-based, human. The following applies: insulin 100 nM 30 min. The method, then: as §1, with “hrs. Expression vectors for DNA-PK and mutants, HAT, HDAC9, PP1, Kus and −0.7 p53-Luc were from laboratories of Drs. Meek, Kouzarides, Zelent, Lamond, Shay and Oren respectively. siRNA for knockdown of DNA-PK is commercially available at Santa Cruz Biotechnology Inc.” for “hrs.”

Test [8] deals with USF-1. The test can be described thus: USF-1 modifications in M059J cells lacking DNA-PKcs. In kind it is cell-based, human. The following applies: insulin 100 nM 30 min. The method, then:
as §1, with “hrs. Expression vectors for DNA-PK and mutants, HAT, HDAC9, PP1, Kus and −0.7 p53-Luc were from laboratories of Drs. Meek, Kouzarides, Zelent, Lamond, Shay and Oren respectively. siRNA for knockdown of DNA-PK is commercially available at Santa Cruz Biotechnology Inc.” for “hrs.”

Regarding `CO[C@H]([C@H](O)CC(=O)[C@@H](C)[C@@H](O)CC[C@@H](C)[C@@H]1O[C@]2(CC[C@@H](C)[C@H](CC[C@H](C)C(C)=O)O2)CC[C@@H]1C)[C@H](OC(=O)C[C@@H](O)C1=C(C)C(=O)OC1=O)C(C)C` [Taut, tautomycin], in the test with DNA-PK [1] (Taut 1 uM, vs control cells), the “phosphorylated DNA-PK” value was “easily detected”. Moreover, the “S262 phosphorylation of USF-1” value in the test with USF-1 [2] (Taut 10 nM) is “decreased”; in the test with USF-1 [2] (Taut 1 uM) it was “hardly detectable”. Further, the “USF-1 interaction and recruitment of various proteins” value in the test with USF-1 [3] is “abolished”.
As to `C=C1[C@@H](O)[C@@H]2O[C@]3(CC[C@H](/C=C/[C@@H](C)[C@@H]4CC(C)=C[C@@]5(O[C@H](C[C@@](C)(O)C(=O)O)CC[C@H]5O)O4)O3)CC[C@H]2O[C@@H]1[C@@H](O)C[C@H](C)[C@H]1O[C@@]2(CCCCO2)CC[C@H]1C` [OA, okadaic acid], the “phosphorylation of DNA-PK” value in the test on DNA-PK [1] (OA 1 uM, vs control DMSO) is given as “greatly increased”. For the same molecule, the “S262 phosphorylation of USF-1” value with USF-1 [2] (OA 1 uM, vs control DMSO) is recorded as “hardly detectable”. The “K237 acetylation of USF-1” value in the test on USF-1 [4] is “reduced”.
Consider insulin, for which, in the test with USF-1 [5], the “K237 acetylation of USF-1” value is listed as “markedly increased” and the “S262 phosphorylation of USF-1” value is reported as “markedly increased”. Also, the DNA-PK phosphorylation result with DNA-PK [6] is listed as “not detectable”. For the same molecule, the “PP1 in nuclear extracts” value in the test on PP1 is “increased”. Further, in the test on USF-1 [7], the “K237 acetylation of USF-1” value is “increased” and the “S262 phosphorylation of USF-1” value is listed as “increased”. For the same molecule, the “USF modifications (S262 phosphorylation, K237 acetylation)” value in the test on USF-1 [8] is “did not result in any significant increase”.
